{
  "source": "ChEMBL document CHEMBL5518165",
  "about": "“M335, a novel small-molecule STING agonist activates the immune response and exerts antitumor effects” (Eur J Med Chem, 2024)",
  "key": {"[1]": {"biological_target": "T1, Stimulator of interferon genes protein (Mus musculus) (UniProt Q3TBT3)", "T1 sequence (whole entry)": "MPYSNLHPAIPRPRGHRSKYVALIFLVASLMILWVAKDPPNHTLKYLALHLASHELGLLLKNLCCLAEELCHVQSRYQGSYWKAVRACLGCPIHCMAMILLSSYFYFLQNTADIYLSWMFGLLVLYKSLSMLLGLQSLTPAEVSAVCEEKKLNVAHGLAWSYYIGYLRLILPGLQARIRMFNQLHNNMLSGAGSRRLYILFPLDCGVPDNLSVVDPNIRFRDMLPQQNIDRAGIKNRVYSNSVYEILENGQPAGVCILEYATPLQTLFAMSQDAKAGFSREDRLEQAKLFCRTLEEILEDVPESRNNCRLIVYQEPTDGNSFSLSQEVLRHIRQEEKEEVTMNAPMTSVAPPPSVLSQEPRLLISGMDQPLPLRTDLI", "assay": "Agonist activity at STING in MEF cells assessed as nuclear transposition of phosphorylated IRF3 incubated for 1 hr by laser scanning confocal microscope analysis", "assay_type": "cell-based", "details": "filed as agonist"}, "[2]": {"tested_on": "MC-38", "assay": "Antitumor activity against mouse MC38 cells allografted in C57/BL6 mouse assessed as increase in CD8+ T cells in spleen at 300 ug, IT administered every 2 days by flow cytometry analysis (reference value: 8.80%)", "assay_type": "functional", "details": "dose 300 µg"}, "[3]": {"tested_on": "MC-38", "assay": "Antitumor activity against mouse MC38 cells allografted in C57/BL6 mouse assessed as increase in CD45+ T cells in tumor tissue at 300 ug, IT administered every 2 days by flow cytometry analysis", "assay_type": "functional, cell-based", "details": "dose 300.0 µg"}, "[4]": {"tested_on": "Human alphaherpesvirus 1", "assay": "Antiviral activity against HSV-1-GFP infected in human HeLa cells assessed as reduction in viral infection by fluorescent microscopy analysis", "assay_type": "functional, organism-based"}, "[5]": {"biological_target": "Stimulator of interferon genes protein (Homo sapiens) (UniProt Q86WV6)", "sequence (Q86WV6 whole entry)": "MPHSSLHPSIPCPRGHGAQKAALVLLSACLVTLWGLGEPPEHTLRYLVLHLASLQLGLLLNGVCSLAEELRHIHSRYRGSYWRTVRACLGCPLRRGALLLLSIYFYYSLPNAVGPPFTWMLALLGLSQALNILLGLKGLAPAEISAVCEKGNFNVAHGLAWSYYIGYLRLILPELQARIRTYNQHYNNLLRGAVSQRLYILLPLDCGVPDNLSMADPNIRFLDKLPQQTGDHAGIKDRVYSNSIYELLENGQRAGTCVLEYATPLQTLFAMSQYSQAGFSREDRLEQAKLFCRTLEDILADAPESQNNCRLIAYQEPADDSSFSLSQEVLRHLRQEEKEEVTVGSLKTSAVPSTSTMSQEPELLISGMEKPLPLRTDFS", "assay": "Agonist activity at STING in human THP-1 cells at 50 uM", "assay_type": "cell-based", "details": "filed as agonist"}, "[6]": {"biological_target": "Stimulator of interferon genes protein (Homo sapiens) (UniProt Q86WV6)", "assay": "Agonist activity at STING in human THP-1 cells assessed as upregulation of IFNgamma related genes by GSEA", "assay_type": "cell-based", "details": "filed as agonist"}, "[7]": {"tested_on": "Human alphaherpesvirus 1", "assay": "Antiviral activity against HSV-1-GFP infected in human STING overexpressing HeLa cells assessed as reduction in viral infection by fluorescent microscopy analysis", "assay_type": "functional, organism-based"}, "[8]": {"tested_on": "THP-1", "assay": "Upregulation of IFNB mRNA level in STING-knockout human THP-1 cells at 20 uM measured for 4 hrs by qPCR analysis", "assay_type": "functional, cell-based"}, "[9]": {"assay": "Toxicity in C57/BL6 mouse allografted with mouse B16-F10 cells assessed as change in body weight at 300 ug, IT administered every 2 days", "assay_type": "cell-based", "details": "in vivo, other, 48 h, dose 300 µg"}, "[10]": {"assay": "Toxicity in C57/BL6 mouse xenografted with mouse MC38 cells assessed as organ damage at 300 ug, IT administered every 2 days by hematoxylin and eosin staining based histological analysis", "assay_type": "cell-based, MC-38", "details": "in vivo, other, 48 h, dose 300 µg"}, "[11]": {"tested_on": "Human alphaherpesvirus 1", "assay": "Antiviral activity against HSV-1-GFP infected in human THP-1 cells assessed as reduction in proportion of infected cells pre-infected […] for 24 hrs followed by compound addition and measured after 6 hrs by flow cytometry analysis", "assay_type": "functional, organism-based", "details": "dose 10-30 µM"}, "[12]": {"tested_on": "MC-38", "assay": "Induction of apoptosis in mouse MC38 cells allografted in C57/BL6 mouse a at 300 ug, IT administered every 2 days", "assay_type": "functional, cell-based", "details": "dose 300.0 µg"}, "[13]": {"tested_on": "MC-38", "assay": "Antitumor activity against mouse MC38 cells allografted in C57/BL6 mouse assessed as increase in NK cells in spleen at 300 ug, IT administered every 2 days by flow cytometry analysis (reference value: 3.95%)", "assay_type": "functional", "details": "dose 300 µg, time 2 day"}, "[14]": {"tested_on": "THP-1", "assay": "Upregulation of CXCL10 mRNA level in STING-knockout human THP-1 cells at 20 uM measured for 4 hrs by qPCR analysis", "assay_type": "functional, cell-based"}, "[15]": {"biological_target": "Stimulator of interferon genes protein (Homo sapiens) (UniProt Q86WV6)", "assay": "Agonist activity at STING in human THP-1 cells assessed as increase in IL6 mRNA level at 20 uM measured for 4 hrs by qPCR analysis", "assay_type": "cell-based", "details": "filed as agonist"}, "[16]": {"biological_target": "Stimulator of interferon genes protein (Homo sapiens) (UniProt Q86WV6)", "assay": "Agonist activity at STING in human THP-1 cells assessed as increase in TBK1 phosphorylation incubated for 4 hrs by Western blotting analysis", "assay_type": "cell-based", "details": "filed as agonist, dose 5-40 µM"}, "[17]": {"biological_target": "Stimulator of interferon genes protein (Homo sapiens) (UniProt Q86WV6)", "assay": "Agonist activity at STING in human THP-1 cells assessed as increase in IFNB mRNA level at 20 uM measured for 4 hrs by qPCR analysis", "assay_type": "cell-based", "details": "filed as agonist"}, "[18]": {"biological_target": "Stimulator of interferon genes protein (Homo sapiens) (UniProt Q86WV6)", "assay": "Agonist activity at STING in human THP-1 cells assessed as increase in CXCL10 mRNA level at 20 uM measured for 4 hrs by qPCR analysis", "assay_type": "cell-based", "details": "filed as agonist"}, "[19]": {"tested_on": "MC-38", "assay": "Antitumor activity against mouse MC38 cells allografted in C57/BL6 mouse assessed as increase in CD8+ T cell numbers in tumor tissues at 300 ug, IT administered every 2 days by immunohistochemical staining based analysis", "assay_type": "functional", "details": "dose 300.0 µg"}, "[20]": {"tested_on": "B16-F10", "assay": "Antitumor activity against mouse B16-F10 cells allografted in C57/BL6 mouse assessed as reduction in tumor growth at 300 ug, IT administered every 2 days", "assay_type": "functional, cell-based", "details": "dose 300.0 µg"}, "[21]": {"biological_target": "Stimulator of interferon genes protein (Homo sapiens) (UniProt Q86WV6)", "assay": "Agonist activity at STING in human THP-1 cells assessed as increase in LC3 protein level at 20 uM measured for 4 hrs by Western blotting analysis", "assay_type": "cell-based", "details": "filed as agonist"}, "[22]": {"assay": "Toxicity in […] mouse allografted with mouse CT26 cells assessed as change in body weight at 300 ug, IT administered every 2 days", "assay_type": "cell-based", "details": "in vivo, other, 48 h, dose 300 µg"}, "[23]": {"biological_target": "Stimulator of interferon genes protein (Homo sapiens) (UniProt Q86WV6)", "assay": "Agonist activity at STING in human THP-1 cells assessed as increase in LC3-II protein level incubated for 4 hrs by Western blotting analysis", "assay_type": "cell-based", "details": "filed as agonist, dose 5-40 µM"}, "[24]": {"biological_target": "Stimulator of interferon genes protein (Homo sapiens) (UniProt Q86WV6)", "assay": "Agonist activity at STING in human THP-1 cells assessed as increase in ISG15 mRNA level at 20 uM measured for 4 hrs by qPCR analysis", "assay_type": "cell-based", "details": "filed as agonist"}, "[25]": {"tested_on": "THP-1", "assay": "Upregulation of IRF3 phosphorylation in STING-knockout human THP-1 cells at 20 uM measured for 4 hrs by Western blotting analysis", "assay_type": "functional, cell-based"}, "[26]": {"tested_on": "THP-1", "assay": "Upregulation of TBK1 phosphorylation in STING-knockout human THP-1 cells at 20 uM measured for 4 hrs by Western blotting analysis", "assay_type": "functional, cell-based"}, "[27]": {"tested_on": "CT26", "assay": "Antitumor activity against mouse CT26 cells […] mouse assessed as augmentation of CD8+ T cells in spleen at 20 mg/kg, ip administered every 2 days (reference value: 6.99%)", "assay_type": "functional", "details": "time 2 day"}, "[28]": {"tested_on": "MC-38", "assay": "Antitumor activity against mouse MC38 cells allografted in C57/BL6 mouse assessed as increase in NK cells in tumor tissue at 300 ug, IT administered every 2 days by flow cytometry analysis (reference value: 14%)", "assay_type": "functional", "details": "dose 300 µg, time 2 day"}, "[29]": {"tested_on": "MC-38", "assay": "Antitumor activity against mouse MC38 cells allografted in C57/BL6 mouse assessed as increase in CD3+ T cells in tumor tissue at 300 ug, IT administered every 2 days by flow cytometry analysis", "assay_type": "functional, cell-based", "details": "dose 300.0 µg"}, "[30]": {"biological_target": "Stimulator of interferon genes protein (Homo sapiens) (UniProt Q86WV6)", "assay": "Binding affinity to human STING CTD assessed as decrease in protein stability by Western blotting analysis", "details": "filed as agonist"}, "[31]": {"tested_on": "Human alphaherpesvirus 1", "assay": "Antiviral activity against HSV-1-GFP infected in human STING-deficient WT HeLa cells assessed as reduction in viral infection by fluorescent microscopy analysis", "assay_type": "functional, organism-based"}, "[32]": {"biological_target": "Stimulator of interferon genes protein (Homo sapiens) (UniProt Q86WV6)", "assay": "Agonist activity at STING in human THP-1 cells assessed as upregulation of interferon stimulated genes at 20 uM by RNA sequencing analysis", "assay_type": "cell-based", "details": "filed as agonist"}},
  "note": "Active and inactive are the calls of the source. The rule behind the calls is not given here.",
  "data": [
    {"molecule": "CC(NCCC(c1ccccc1)c1ccccc1)c1ccccc1", "note": "(configuration not stated) [FENDILINE]", "values": [
      {"measurement": "Activity", "setting": "[1]", "result": "Active"},
      {"measurement": "Activity", "setting": "[2]", "result": 14.3, "unit": "%"},
      {"measurement": "Activity", "setting": "[3]", "result": "Active"},
      {"measurement": "Activity", "setting": "[4]", "result": "Active"},
      {"measurement": "Activity", "setting": "[5]", "result": "Active"},
      {"measurement": "Activity", "setting": "[6]", "result": "Active"},
      {"measurement": "Activity", "setting": "[7]", "result": "Active"},
      {"measurement": "Activity", "setting": "[8]", "result": "inactive"},
      {"measurement": "Activity", "setting": "[9]", "result": "Non-Toxic"},
      {"measurement": "Activity", "setting": "[10]", "result": "Non-Toxic"},
      {"measurement": "Activity", "setting": "[11]", "result": "Dose-Dependent Effect"},
      {"measurement": "Activity", "setting": "[12]", "result": "inactive"},
      {"measurement": "Activity", "setting": "[13]", "result": 5.94, "unit": "%"},
      {"measurement": "Activity", "setting": "[14]", "result": "inactive"},
      {"measurement": "Activity", "setting": "[15]", "result": "Active"},
      {"measurement": "Activity", "setting": "[16]", "result": "Dose-Dependent Effect"},
      {"measurement": "Activity", "setting": "[17]", "result": "Active"},
      {"measurement": "Activity", "setting": "[18]", "result": "Active"},
      {"measurement": "Activity", "setting": "[19]", "result": "Active"},
      {"measurement": "Activity", "setting": "[20]", "result": "Active"},
      {"measurement": "Activity", "setting": "[21]", "result": "Active"},
      {"measurement": "Activity", "setting": "[22]", "result": "Non-Toxic"},
      {"measurement": "Activity", "setting": "[23]", "result": "Dose-Dependent Effect"},
      {"measurement": "Activity", "setting": "[24]", "result": "Active"},
      {"measurement": "Activity", "setting": "[25]", "result": "inactive"},
      {"measurement": "Activity", "setting": "[26]", "result": "inactive"},
      {"measurement": "Activity", "setting": "[27]", "result": 21, "unit": "%"},
      {"measurement": "Activity", "setting": "[28]", "result": 24, "unit": "%"},
      {"measurement": "Activity", "setting": "[29]", "result": "Active"},
      {"measurement": "Activity", "setting": "[30]", "result": "Active"},
      {"measurement": "Activity", "setting": "[31]", "result": "Active"},
      {"measurement": "Activity", "setting": "[32]", "result": "Active"}
    ]}
  ]
}
